Assay results reported in US20110162116A1, “Method For Growing Plants” (priority 2008, published 2011).

Test system: Cotton
Assay: Total dark respiration and SHAM-sensitive AOX by phase shift fluorescence measurement, cotton leaf sections
Format: in vivo, Gossypium spp.
From the text: Ozone control. Ozone generators (model OP-35-3P, Grupo Interozone, Brazil) were coupled to ozone monitors (model 202, 2B Technologies, Inc. USA; dynamic range of 1.5 ppbv to 100 ppmv of ozone; precision 1.5 ppbv or 2% of the reading) using a ozone monitor—generator interface (Engineering dep. Crops Advance Brazil). […] This was used as the upper limit for phytotron number one. Phytotron number two was set at 30 ppbv average ozone. Phytotron number three was set at 60 ppbv average ozone. Ozone levels of phytotron number two and three were permanently measured at 10 second intervals and averaged per minute. Each ozone monitor fed averaged values over an analog output to an ozone monitor—ozone generator interface. Hysteresis was set at +/−5 ppbv. Ozone levels were monitored close to the inlet of the two internal circulation ventilators. The ozone generators were adapted to accept an external digital signal from the interface.
Respiration of plant material was tested as follows: Partial oxygen pressure drops due to oxygen consumption as result of dark respiration were measured using phase shift fluorescence measurement. For this, a NeoFox™ Phase Measurement System was used (Fluorometer Bench version using a QBIF600-VIS-NIR laboratory-grade bifurcated optical fiber with FOXY-R-8 cm overcoated fluorescence oxygen needle sensor, Ocean Optics Inc. USA).
Fluorescence phase shift was expressed as Tau in microseconds (μs) and has an inverse and linear relation with the partial oxygen pressure.
Salicylhydroxamic acid (SHAM) (99%, Sigma-Aldrich Brasil Ltda. São Paulo, Brazil) was used as an AOX inhibitor. The soluble sodium salicylhydroxamate salt was prepared by titrating SHAM with 0.1 M sodium hydroxide until neural pH. A stock solution ([…]) was prepared containing 300 ml/L ethanol from initial dissolving SHAM (same abbreviation is used for the salicylhydroxamate salt). From the stock solution a 20 mmol/L salicylhydroxamate final test solution was prepared by taking 12.3 ml stock solution and completing till 100 ml with a phosphate buffer solution (pH 7). The final SHAM test solution thus contained 3.7% residual ethanol. For proper control, the comparative test solution was also provided with 3.7 ml of ethanol per 100 ml of phosphate buffer solution (pH 7). To both solutions two drops of wetting agent (Silwet L-77 AG, GE Silicones Inc. USA) were added per 25 ml of test solution.
Plant material collected was always the first fully grown leaf counting from the apical point downwards or outwards (e.g. for monocotyls). […] Per test, four leafs from four different plants were sampled. Cotton leafs were cut in half along the mid nerve. Using a clipper, 16 leaf sections of equal surface area of 400.9 mm2 each were cut, one from each base half and one from each top half part giving 4 sections per leaf and 16 sections per test. The leaf sections were distributed equally over two sub samples, one with and one without salicylhydroxamate. Using a chirurgical blade, all sections were given 7 parallel cuts (through and through) at approximately 2.5 mm apart over almost the full length of the section to guarantee lateral infiltration of the test solutions and gas exchange.
Within 10 minutes of plant sampling the sections were cut, initial subsample weight was registered using a high precision laboratory scale and the subsamples were placed in their solutions with and without salicylhydroxamate for 60 minutes in the dark, to guarantee dark adaptation.
Each sample contained 4 leaves, 4 sections per leaf providing 16 sections, 8 per subsample. In 1 subsample of 8 sections AOX was inhibited, the other subsample served as control. Thereafter each subsample material was tissue dried and stacked using filter paper sections cut with the same clipper to separate individual leaf sections. Each subsample consisted of 9 filter sections and 8 leaf sections. […]

[1] = plants grown in 0 ppvb O3, transferred to 60 ppvb O3 and transferred back to 0 ppvb O3
[2] = plants grown in 0 ppvb O3 and transferred to 30 ppvb O3
[3] = plants grown in 0 ppvb O3 and transferred to 60 ppvb O3
[4] = plants grown in 60 ppvb O3 and transferred to 0 ppvb O3

O=[O+][O-] [ozone]
time for AOX respiration rate to fully return to base level when the oxidative stress is reduced (cotton, after exposure to higher ozone levels than in ontogenic phase): ≤ 3 days | AOX respiration after return to the 0 ppbv ozone ambient (in words) (ontogenic phase in 0 ppbv, time in 60 ppbv ozone ambient, returned to 0 ppbv): returned fully to its initial level | AOX component [1]: 2.95 arb units | TDR excl AOX dTau/t without SHAM [1]: 8.87E−06 μs/s | TDR incl AOX dTau/t with SHAM [1]: 1.18E−05 μs/s | AOX component [2]: 3.26 arb units | TDR excl AOX dTau/t without SHAM [2]: 7.51E−06 μs/s | TDR incl AOX dTau/t with SHAM [2]: 1.08E−05 μs/s | AOX component [3]: 3.77 arb units | TDR excl AOX dTau/t without SHAM [3]: 5.75E−06 μs/s | TDR incl AOX dTau/t with SHAM [3]: 9.52E−06 μs/s | AOX component (plants grown in 30 ppvb O3): 2.97 arb units | TDR excl AOX dTau/t without SHAM (plants grown in 30 ppvb O3): 6.96E−06 μs/s | TDR incl AOX dTau/t with SHAM (plants grown in 30 ppvb O3): 9.93E−06 μs/s | AOX component (plants grown in 60 ppvb O3): 3.33 arb units | TDR excl AOX dTau/t without SHAM (plants grown in 60 ppvb O3): 6.03E−06 μs/s | TDR incl AOX dTau/t with SHAM (plants grown in 60 ppvb O3): 9.36E−06 μs/s | AOX component [4]: 3.97 arb units | TDR excl AOX dTau/t without SHAM [4]: 7.13E−06 μs/s | TDR incl AOX dTau/t with SHAM [4]: 1.11E−05 μs/s | AOX respiration during stay in the zero ozone level ambient (in words) (plants grown up in 60 ppbv ozone, placed in zero ozone ambient): did not lower their AOX respiration
